The numbers were not newly measured in patent US7888378B2, “Thiadiazole compounds and uses thereof” (Mallinckrodt Inc., priority 2006, dated 2011), which cites them from elsewhere.

The structures appear in SMILES notation.

For this data set, the system named is tumors. As to conditions: after administering the substance.

For `NCC(=O)CCC(=O)O` [delta-aminolevulinic acid], the “uptake of porphyrins in tumors compared to normal tissues” value is “two-fold”.
